According to ChEMBL document CHEMBL1138190, “Synthesis and antibacterial activity of novel C12 vinyl ketolides” (J Med Chem, 2006):
Converted amounts (≈) assume the structure as drawn.

How the values were obtained:
Type in all cases: functional
[1] = test system: Streptococcus pneumoniae; experiment: Antibacterial activity against Streptococcus pneumoniae Mef 1790
[2] = test system: Streptococcus pneumoniae; experiment: Antibacterial activity against Streptococcus pneumoniae Mef 2382
[3] = test system: Streptococcus pneumoniae; experiment: Antibacterial activity against Streptococcus pneumoniae Mef 2880
[4] = test system: Streptococcus pneumoniae; experiment: Antibacterial activity against Streptococcus pneumoniae Mef 3449
[5] = test system: Streptococcus pneumoniae; experiment: Antibacterial activity against Streptococcus pneumoniae Mef 3855
[6] = test system: Streptococcus pneumoniae; experiment: Antibacterial activity against Streptococcus pneumoniae Mef 4126
[7] = test system: Streptococcus pneumoniae; experiment: Antibacterial activity against Streptococcus pneumoniae Mef 4331
[8] = test system: Streptococcus pneumoniae; experiment: Antibacterial activity against Streptococcus pneumoniae Mef 6966
[9] = test system: Streptococcus pneumoniae; experiment: Antibacterial activity against Streptococcus pneumoniae Mef 9142
[10] = test system: Streptococcus pneumoniae; experiment: Antibacterial activity against Streptococcus pneumoniae Mef 9959
[11] = test system: Streptococcus pneumoniae; experiment: Antibacterial activity against Streptococcus pneumoniae Mef 10095
[12] = test system: Streptococcus pneumoniae; experiment: Antibacterial activity against Streptococcus pneumoniae Erm 6396
[13] = test system: Streptococcus pneumoniae; experiment: Antibacterial activity against Streptococcus pneumoniae Erm 6388
[14] = test system: Streptococcus pneumoniae; experiment: Antibacterial activity against Streptococcus pneumoniae Erm S 4297
[15] = test system: Streptococcus pneumoniae; experiment: Antibacterial activity against Streptococcus pneumoniae Erm S 4085
[16] = test system: Streptococcus pneumoniae; experiment: Antibacterial activity against Streptococcus pneumoniae Erm 867
[17] = test system: Streptococcus pneumoniae; experiment: Antibacterial activity against Streptococcus pneumoniae Erm 2218
[18] = test system: Streptococcus pneumoniae; experiment: Antibacterial activity against Streptococcus pneumoniae Erm 3120
[19] = test system: Streptococcus pneumoniae; experiment: Antibacterial activity against Streptococcus pneumoniae Erm 4290
[20] = test system: Streptococcus pneumoniae; experiment: Antibacterial activity against Streptococcus pneumoniae Erm 4589
[21] = test system: Streptococcus pneumoniae; experiment: Antibacterial activity against Streptococcus pneumoniae Erm 5354
[22] = test system: Streptococcus pneumoniae; experiment: Antibacterial activity against Streptococcus pneumoniae Erm 5399
[23] = test system: Streptococcus pneumoniae; experiment: Antibacterial activity against Streptococcus pneumoniae Erm 5415
[24] = test system: Streptococcus pneumoniae; experiment: Antibacterial activity against Streptococcus pneumoniae Erm 5554
[25] = test system: Streptococcus pneumoniae; experiment: Antibacterial activity against Streptococcus pneumoniae Erm 7985
[26] = test system: Streptococcus pneumoniae; experiment: Antibacterial activity against Streptococcus pneumoniae Erm 8257
[27] = test system: Streptococcus pneumoniae; experiment: Antibacterial activity against Streptococcus pneumoniae Erm 8339
[28] = test system: Streptococcus pneumoniae; experiment: Antibacterial activity against Streptococcus pneumoniae Erm 8919
[29] = test system: Haemophilus influenzae; experiment: Antibacterial activity against Haemophilus influenzae 2762
[30] = test system: Streptococcus pneumoniae; experiment: Antibacterial activity against Streptococcus pneumoniae Erm 8947
[31] = test system: Streptococcus pneumoniae; experiment: Antibacterial activity against Streptococcus pneumoniae Erm 10279
[32] = test system: Streptococcus pneumoniae; experiment: Antibacterial activity against Streptococcus pneumoniae Erm 5590

Q: For C=C[C@]12OC(=O)N(CCCCn3cnc(-c4ccc(Cl)nc4)c3)[C@@H]1[C@@H](C)C(=O)[C@H](C)C[C@@](C)(OC)[C@H](O[C@@H]1O[C@H](C)C[C@H](N(C)C)[C@H]1O)[C@@H](C)C(=O)[C@@H](C)C(=O)O[C@@H]2CC, which MIC [1] is on record?
A: 0.1 µg/mL (≈ 0.116 µM)

Q: And the MIC [2]?
A: 0.1 µg/mL (≈ 0.116 µM)

Q: And the MIC [3]?
A: ≤ 0.05 µg/mL

Q: What about the MIC [4] of the same molecule?
A: ≤ 0.05 µg/mL

Q: And the MIC [5]?
A: ≤ 0.05 µg/mL

Q: What about the MIC [6] of the same molecule?
A: ≤ 0.05 µg/mL

Q: And the MIC [7]?
A: 0.1 µg/mL (≈ 0.116 µM)

Q: What about the MIC [8] of the same molecule?
A: ≤ 0.05 µg/mL

Q: What about the MIC [9] of the same molecule?
A: 0.1 µg/mL (≈ 0.116 µM)

Q: And the MIC [10]?
A: ≤ 0.05 µg/mL

Q: What about the MIC [11] of the same molecule?
A: ≤ 0.05 µg/mL

Q: And the MIC [12]?
A: 0.05 µg/mL (≈ 0.0582 µM)

Q: What about the MIC [13] of the same molecule?
A: 0.4 µg/mL (≈ 0.466 µM)

Q: And the MIC [14]?
A: 0.025 µg/mL (≈ 0.0291 µM)

Q: And the MIC [15]?
A: ≤ 0.013 µg/mL

Q: What about the MIC [16] of the same molecule?
A: 0.025 µg/mL (≈ 0.0291 µM)

Q: And the MIC [17]?
A: 0.025 µg/mL (≈ 0.0291 µM)

Q: And the MIC [18]?
A: 0.05 µg/mL (≈ 0.0582 µM)

Q: And the MIC [19]?
A: 0.025 µg/mL (≈ 0.0291 µM)

Q: What about the MIC [20] of the same molecule?
A: 0.025 µg/mL (≈ 0.0291 µM)

Q: What about the MIC [21] of the same molecule?
A: 0.025 µg/mL (≈ 0.0291 µM)

Q: And the MIC [22]?
A: 0.025 µg/mL (≈ 0.0291 µM)

Q: And the MIC [23]?
A: 0.025 µg/mL (≈ 0.0291 µM)

Q: And the MIC [24]?
A: 0.1 µg/mL (≈ 0.116 µM)

Q: And the MIC [25]?
A: ≤ 0.013 µg/mL

Q: What about the MIC [26] of the same molecule?
A: ≤ 0.013 µg/mL

Q: What about the MIC [27] of the same molecule?
A: 0.2 µg/mL (≈ 0.233 µM)

Q: And the MIC [28]?
A: 0.025 µg/mL (≈ 0.0291 µM)

Q: And the MIC [29]?
A: 0.78 µg/mL (≈ 0.909 µM)

Q: What about the MIC [30] of the same molecule?
A: 0.05 µg/mL (≈ 0.0582 µM)

Q: What about the MIC [31] of the same molecule?
A: 0.025 µg/mL (≈ 0.0291 µM)

Q: What about the MIC [32] of the same molecule?
A: 0.025 µg/mL (≈ 0.0291 µM)
